Measured values from US10456409B2 (priority 2016, dated 2019).
Read-outs that look alike come from different tables or passages of the source.

Legend:
Format in all cases: cell-based, mouse
[1] = system: bone marrow stromal cells (BMSC), first passage (P1); experiment: Alkaline phosphatase assay (NBT/BCIP staining) of primary BMSC (P1) in osteogenic media; details: primary BMSC P1, four days in osteogenic media; ATO 10 μM, Cholecalciferol 10 μM, Lovastatin 1 μM, NP101 diluted 1:1 or 1:10 (FIG. 1)
Protocol: (§1) Mesenchymal stem cells isolation: Bone marrow stromal cells were isolated from six to eight weeks old wild type mice. Femurs and tibias were dissected from surrounding tissues. The epiphyseal growth plates were removed and the marrow was collected by flushing with modified essential medium (MEM) containing 100 U/ml Penicillin, 100 μg/ml streptomycin and 10% fetal bovine serum with a 25 G needle. Single cell suspensions were prepared by passing the cell clumps through an 18G needle followed by filtration through a 70-μm cell strainer.
(§2) After cells reached confluence, medium was replaced with osteogenic differentiation medium (OM). Osteogenic differentiation medium (OM) consists of: DMEM, 10% FBS, Pen-Strep (1×), L-Glutamine (2 mM), 10 mM beta glycerol phosphate and 50 μg/ml ascorbic acid. Duplicate wells were exposed to differentiation media without any agent (control), single agent (Cholecalciferol, ATO or Lovastatin) or Nosto-101 combination agents. Media replacement occurred every 2-3 days with fresh differentiation medium (made each time during feeding) with or without single agent or Nosto-101.
(§3) Alkaline phosphatase assay: Cells were stained after 4 days exposure in OM differentiation medium for Alkaline Phosphatase (AP) assay. This is a colorimetric assay in which NBT (nitro-blue tetrazolium chloride) and BCIP (5-Bromo-4-chloro-3′-indolyphosphate p-toluidine salt) yields insoluble purple precipitate when reacted with alkaline phosphatase enzyme.
After 4 days of culturing cells in OM media, cells were fixed with 4% paraformaldehyde and then washed once with PBS. One ml of One-step NBT/BCIP staining solution (Thermo Fisher) was added per well and the cells were then incubated in the dark for 30 min to 1 h and checked for color development. The reaction was quickly stopped by removing NBT/BCIP and adding water.

[2] = system: Alkaline Phosphatase gene expression in BMSC culture; details: four days in OM media, control = 1.00
Protocol: as §1, §2
qRT-PCR: Total RNA was isolated first with Trizol (Invitrogen) and then with RNeasy Kit (Qiagen). First strand cDNA was generated using a High capacity cDNA reverse transcriptase kit (Abcam). qPCR was performed using a Biorad cycler at 40 cycles of 95° C. for 5 seconds and at 60° C. for 30 seconds. PCR product was detected using SybrGreen (BioRad). Primers used for amplifications were Actin: Forward 5′-CACAGCTTCTTTGCAGCTCCT-3′ (SEQ ID NO:1), Reverse 5′-CGT CAT CCA TGG CGA ACT G-3′ (SEQ ID NO:2); Alk Phos: Forward 5′-CACGCGATGCAACACTCAGG-3′ (SEQ ID NO:3), Reverse 5′-GCATGTCCCCGGGCTCAAAGA-3′ (SEQ ID NO:4).

[3] = system: BMSC cells primed for osteogenesis; details: BMSC primed with LCN2 and PRL, then osteogenic media with agent; ATO 10 μM, Cholecalciferol 10 μM, Lovastatin 1 μM, NP101 diluted 1:1 or 1:10 (FIG. 2)
Protocol: as §1
Priming cells for osteogenseis: An aliquot of cells was diluted 1:1 with 0.04% trypan blue in PBS and viable cells were plated at a density of 2×10^6 cells/cm^2 and in a 35-mm culture dish and exposed to recombinant mouse Prolactin (PRL) (1 ng/ml) and/or Lacritin 2(LCN2) (18 ng/ml) in Alpha MEM media with 20% FBS, L-Glutamine 2 mM and Pen-Strep (1×) for three passages to prime cells for osteogenesis. After the third passage, 50,000 bone marrow stromal cells per well were plated in a 24 well plate in Alpha MEM 20% FBS, L-Glutamine (4 mM), PenStrep (1×) and MEM Non-Essential Amino Acids (1×).
as §2
as §3, with “enzyme. […]” for “enzyme.”

Compound | alkaline phosphatase activity (number of blue colored cells) [1] | ALP gene expression fold change ([2]; 1 μm agent) | ALP activity (presence of bluish/purple cells) [3] | ALP gene expression fold change ([2]; 10 μm agent)
CC[C@H](C)C(=O)O[C@H]1C[C@@H](C)C=C2C=C[C@H](C)[C@H](CC[C@@H]3C[C@@H](O)CC(=O)O3)[C@H]21 [Lovastatin] | decreases | 0.316 ± 0.02 fold | clearly diminish ALP activity | 
C=C1CC[C@H](O)C/C1=C/C=C1\CCC[C@]2(C)[C@@H]([C@H](C)CCCC(C)C)CC[C@@H]12 [Cholecalciferol] | decreases |  | clearly diminish ALP activity | 0.350 ± 0.02 fold
Arsenic trioxide [ATO] | decreases |  | clearly diminish ALP activity | 0.105 ± 0.01 fold
